Source: ChEMBL document CHEMBL1138458, “Fructose-1,6-bisphosphatase inhibitors. 1. Purine phosphonic acids as novel AMP mimics” (J Med Chem, 2009)

Assays:
[1] = biological target: T1, Fructose-1,6-bisphosphatase 1 (Homo sapiens, UniProt P09467); assay: Inhibition of human liver FBPase expressed in Escherichia coli by spectrophotometry
T1 sequence (P09467 whole entry): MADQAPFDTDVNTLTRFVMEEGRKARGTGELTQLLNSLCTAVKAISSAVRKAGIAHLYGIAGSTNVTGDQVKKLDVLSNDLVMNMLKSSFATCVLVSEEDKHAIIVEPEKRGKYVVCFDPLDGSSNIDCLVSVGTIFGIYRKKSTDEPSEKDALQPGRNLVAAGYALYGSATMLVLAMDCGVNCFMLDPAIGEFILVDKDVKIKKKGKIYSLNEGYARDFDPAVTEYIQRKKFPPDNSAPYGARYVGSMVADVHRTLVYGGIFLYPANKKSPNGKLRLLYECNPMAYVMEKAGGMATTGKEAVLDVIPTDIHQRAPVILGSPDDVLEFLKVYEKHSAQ

Hepatocyte = assay: Inhibition of glucose production in rat primary hepatocytes treated for 15 to 30 mins prior to gluconeogenic substrate dihydroxyacetone addition; format: functional, cell-based
[2] = biological target: T2, Fructose-1,6-bisphosphatase 1 (Rattus norvegicus, UniProt P19112); assay: Inhibition of rat liver FBPase
T2 sequence (P19112 whole entry): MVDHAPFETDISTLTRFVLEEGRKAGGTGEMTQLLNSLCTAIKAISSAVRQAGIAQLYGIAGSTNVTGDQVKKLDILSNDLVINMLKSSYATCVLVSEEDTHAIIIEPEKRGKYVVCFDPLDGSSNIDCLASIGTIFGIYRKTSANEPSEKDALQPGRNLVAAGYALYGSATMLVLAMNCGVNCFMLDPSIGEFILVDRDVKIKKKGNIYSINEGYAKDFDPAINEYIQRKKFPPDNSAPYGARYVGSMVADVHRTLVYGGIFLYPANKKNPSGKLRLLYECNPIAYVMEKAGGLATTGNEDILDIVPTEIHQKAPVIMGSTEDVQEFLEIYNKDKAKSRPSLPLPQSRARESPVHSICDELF

[3] = Inhibition of New Zealand white rabbit liver phosphofructokinase; set-up: species or system Oryctolagus cuniculus
[4] = Inhibition of pig heart AMP deaminase; set-up: species or system Sus scrofa
Adenosine kinase = Adenosine kinase (Homo sapiens, UniProt P55263); assay: Inhibition of human recombinant adenosine kinase expressed in Escherichia coli
Rattus norvegicus = assay: Oral bioavailability in fasted Sprague-Dawley rat assessed as urinary excretion of phosphonic acid up to 300 mg/kg; format: ADME, organism-based, Urine; conditions: in vivo
[5] = biological target: T3, Fructose-1,6-bisphosphatase 1 (Homo sapiens) (UniProt P09467)
T3 sequence (whole entry): T1 sequence (P09467 whole entry)
Description: Displacement of [3H]AMP from human liver FBPase

Liver [6] = assay: Drug concentration in overnight-fasted Sprague-Dawley rat liver assessed as {5-[6-Amino-9-(2,2-dimethyl-propyl)-9H-purin-8-yl]-furan-2-yl}- phosphonic acid level at 50 mg/kg, po after 2 hrs; format: ADME, organism-based; set-up: dose 50 mg/kg, route oral; conditions: in vivo
Liver [7] = assay: Drug concentration in overnight-fasted Sprague-Dawley rat liver assessed as {5-[6-Amino-9-(2,2-dimethyl-propyl)-9H-purin-8-yl]-furan-2-yl}- phosphonic acid level at 50 mg/kg, po after 1 hr; format: ADME, organism-based; set-up: dose 50 mg/kg, route oral; conditions: in vivo

Adenosine kinase, sequence (P55263 whole entry): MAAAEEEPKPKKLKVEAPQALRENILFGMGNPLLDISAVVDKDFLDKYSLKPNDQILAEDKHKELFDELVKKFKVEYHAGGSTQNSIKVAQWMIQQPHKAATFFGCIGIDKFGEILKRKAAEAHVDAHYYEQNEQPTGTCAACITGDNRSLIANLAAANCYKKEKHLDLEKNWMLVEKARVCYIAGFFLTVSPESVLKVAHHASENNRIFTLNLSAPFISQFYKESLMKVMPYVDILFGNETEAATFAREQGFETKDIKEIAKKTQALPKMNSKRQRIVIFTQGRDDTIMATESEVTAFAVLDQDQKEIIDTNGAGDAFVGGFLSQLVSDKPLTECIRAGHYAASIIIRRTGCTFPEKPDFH

IC50 [1] [µM]	SMILES	EC50 (Hepatocyte) [µM]	also measured
> 100	Nc1ncnc2c1nc(CCC(=O)O)n2[C@@H]1O[C@H](CO)[C@@H](O)[C@H]1O	–	–
–	CC(C)(CO)Cn1c(-c2ccc(P(=O)(O)O)o2)nc2c(N)ncnc21	50	IC50 [2]: > 20 µM
100	Nc1ncnc2c1nc(/C=C/CP(=O)(O)O)n2CCc1ccccc1	–	–
48	Nc1ncnc2c1nc(-c1ccc(P(=O)(O)O)s1)n2CCc1ccccc1	–	–
> 100	Nc1ncnc2c1nc(-c1ccc(C(=O)O)o1)n2CCc1ccccc1	–	–
1.8	CCn1c(-c2ccc(P(=O)(O)O)o2)nc2c(N)ncnc21	–	–
> 10	Cn1c(-c2nc3c(N)ncnc3n2CC(C)(C)C)ccc1P(=O)(O)O	–	–
–	Nc1ncnc2c1nc(-c1ccc(P(=O)(O)O)o1)n2CCc1ccccc1	5	EC50 [3]: > 200 µM; IC50 [4]: 6.7 µM; IC50 (Adenosine kinase): > 100 µM; IC50 [2]: 40 µM; F (Rattus norvegicus): < 5%
5	CC(n1c(-c2ccc(P(=O)(O)O)o2)nc2c(N)ncnc21)C(C)(C)C (centres undefined)	–	–
> 100	Nc1ncnc2c1nc(NCC(=O)O)n2[C@@H]1O[C@H](CO)[C@@H](O)[C@H]1O	–	–
100	Nc1ncnc2c1nc(NCCP(=O)(O)O)n2CCc1ccccc1	–	–
> 1000	Nc1ncnc2c1nc(CCO[PH](=O)O)n2CCc1ccccc1	–	–
> 100	CC(C)(C)Cn1c(Cn2ccnc2P(=O)(O)O)nc2c(N)ncnc21	–	–
> 100	Nc1ncnc2c1nc(NCCCP(=O)(O)O)n2[C@@H]1O[C@H](CO)[C@@H](O)[C@H]1O	–	–
–	Nc1ncnc2c1nc(-c1ccc(P(=O)(O)O)o1)n2C1CCCC1	24	IC50 [2]: > 20 µM
40	Nc1ncnc2c1nc(CCOP(=O)(O)O)n2CCc1ccccc1	–	–
–	Nc1ncnc2c1nc(-c1ccc(P(=O)(OCCSSCCO)OCCSSCCO)o1)n2CCc1ccccc1	> 500	–
1.6	CC(C)(C)CCn1c(-c2ccc(P(=O)(O)O)o2)nc2c(N)ncnc21	–	–
> 100	Nc1ncnc2[nH]c(NCCP(=O)(O)O)nc12	–	–
–	Nc1ncnc2c1nc(-c1ccc(P3(=O)OCCSSCCO3)o1)n2CCc1ccccc1	250	–
140	Nc1ncnc2c1nc(NCCOP(=O)(O)O)n2[C@@H]1O[C@H](CO)[C@@H](O)[C@H]1O	–	–
28	CC(C)Cn1c(-c2ccc(P(=O)(O)O)o2)nc2c(N)nc(S(C)(=O)=O)nc21	–	–
–	Nc1ncnc2c1nc(-c1ccc(P(=O)(O)O)o1)n2CCC1CCCCC1	90	IC50 [2]: 20 µM; ED50 [5]: 35 µM
> 100	Nc1ncnc2c1nc(NCP(=O)(O)O)n2[C@@H]1O[C@H](CO)[C@@H](O)[C@H]1O	–	–
1.5	CC(C)Cn1c(-c2ccc(P(=O)(O)O)o2)nc2c(N)ncnc21	18	IC50 [2]: 7 µM
100	Nc1ncnc2c1nc(C(=O)NCP(=O)(O)O)n2CCc1ccccc1	–	–
–	CC(C)C(=O)OCOP(=O)(OCOC(=O)C(C)C)c1ccc(-c2nc3c(N)ncnc3n2CC(C)(C)C)o1	3	Drug uptake (Liver [6]): 2 nmol/g; Drug uptake (Liver [7]): 3.5 nmol/g; F (Rattus norvegicus): 8.1%
145	Nc1ncnc2c1nc(SCCP(=O)(O)O)n2CCc1ccccc1	–	–
–	CSc1nc(N)c2nc(-c3ccc(P(=O)(O)O)o3)n(CC(C)C)c2n1	> 25	IC50 [2]: > 20 µM
